Results on five compounds are retold here after ChEMBL document CHEMBL1148883, “Hit-to-lead studies on benzimidazole inhibitors of ITK: discovery of a novel class of kinase inhibitors” (Bioorg Med Chem Lett, 2007).

Test [1] addresses T1, Tyrosine-protein kinase ITK/TSK (Homo sapiens, UniProt Q08881).
T1 sequence (Q08881 whole entry): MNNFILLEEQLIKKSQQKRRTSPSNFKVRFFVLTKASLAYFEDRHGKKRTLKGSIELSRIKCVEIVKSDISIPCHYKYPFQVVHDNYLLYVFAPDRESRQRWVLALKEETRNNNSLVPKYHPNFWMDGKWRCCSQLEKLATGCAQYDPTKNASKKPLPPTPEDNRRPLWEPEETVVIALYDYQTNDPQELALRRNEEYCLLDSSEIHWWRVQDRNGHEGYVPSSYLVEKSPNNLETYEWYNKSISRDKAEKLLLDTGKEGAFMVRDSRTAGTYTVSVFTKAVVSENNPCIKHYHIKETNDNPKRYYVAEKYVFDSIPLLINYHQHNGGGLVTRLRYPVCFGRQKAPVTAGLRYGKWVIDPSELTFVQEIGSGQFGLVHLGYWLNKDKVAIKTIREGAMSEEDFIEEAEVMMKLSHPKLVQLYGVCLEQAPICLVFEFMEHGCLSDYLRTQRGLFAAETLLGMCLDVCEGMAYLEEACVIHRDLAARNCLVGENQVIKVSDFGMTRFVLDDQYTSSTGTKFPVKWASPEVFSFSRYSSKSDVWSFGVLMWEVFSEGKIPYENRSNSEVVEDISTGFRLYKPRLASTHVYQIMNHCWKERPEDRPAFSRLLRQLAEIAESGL
The experiment in a line: Inhibition of human ITK by DELFIA assay.

Test [2] deals with Epidermal growth factor receptor (Homo sapiens, UniProt P00533). The experiment in a line: Inhibition of EGFR.
Epidermal growth factor receptor, sequence (P00533 whole entry): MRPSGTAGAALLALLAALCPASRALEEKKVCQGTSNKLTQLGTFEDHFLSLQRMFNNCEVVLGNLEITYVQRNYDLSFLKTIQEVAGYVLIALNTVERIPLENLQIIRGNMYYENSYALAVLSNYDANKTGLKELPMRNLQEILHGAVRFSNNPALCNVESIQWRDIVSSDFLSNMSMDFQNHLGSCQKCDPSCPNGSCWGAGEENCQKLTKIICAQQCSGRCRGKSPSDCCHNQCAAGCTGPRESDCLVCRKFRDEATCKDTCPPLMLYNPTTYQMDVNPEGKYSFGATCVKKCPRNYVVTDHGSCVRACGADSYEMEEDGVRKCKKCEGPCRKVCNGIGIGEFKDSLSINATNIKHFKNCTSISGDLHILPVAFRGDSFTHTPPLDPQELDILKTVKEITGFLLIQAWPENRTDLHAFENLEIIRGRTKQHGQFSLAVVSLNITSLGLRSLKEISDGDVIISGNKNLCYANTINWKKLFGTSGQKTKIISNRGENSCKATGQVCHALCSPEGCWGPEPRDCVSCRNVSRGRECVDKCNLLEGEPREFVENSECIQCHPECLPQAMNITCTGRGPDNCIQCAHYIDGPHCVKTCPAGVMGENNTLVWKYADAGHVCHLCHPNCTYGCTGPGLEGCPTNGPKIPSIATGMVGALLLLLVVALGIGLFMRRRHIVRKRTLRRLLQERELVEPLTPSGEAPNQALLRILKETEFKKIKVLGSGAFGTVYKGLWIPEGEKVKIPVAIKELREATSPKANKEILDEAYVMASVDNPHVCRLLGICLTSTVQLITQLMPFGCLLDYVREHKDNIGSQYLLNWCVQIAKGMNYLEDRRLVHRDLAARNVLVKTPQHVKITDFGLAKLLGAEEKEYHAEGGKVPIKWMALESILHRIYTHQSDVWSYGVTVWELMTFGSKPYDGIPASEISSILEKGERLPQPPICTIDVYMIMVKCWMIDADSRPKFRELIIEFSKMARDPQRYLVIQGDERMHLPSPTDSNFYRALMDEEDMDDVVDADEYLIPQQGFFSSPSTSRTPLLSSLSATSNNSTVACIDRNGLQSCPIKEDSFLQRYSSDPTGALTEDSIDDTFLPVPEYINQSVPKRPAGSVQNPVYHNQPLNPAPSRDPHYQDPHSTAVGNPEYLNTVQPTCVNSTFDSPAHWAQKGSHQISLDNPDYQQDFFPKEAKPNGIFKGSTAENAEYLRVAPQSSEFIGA
Test [3] concerns the target Platelet-derived growth factor receptor (Homo sapiens) (UniProt P09619+P16234). The experiment in a line: Inhibition of PDGFR at 10 uM. It counts as protein-complex assay.
Test [4] addresses Rho-associated protein kinase 2 (Homo sapiens) (UniProt O75116). The test is described as follows: Inhibition of ROCK2 at 10 uM.
Test [5] deals with T1, Tyrosine-protein kinase ITK/TSK. The test is described as follows: Effect on human ITK in DT40 cells assessed as […] of calcium influx by FLIPR assay. Format: cell-based.
In test [6] the target is Tyrosine-protein kinase TXK (Homo sapiens, UniProt P42681). The test is described as follows: Inhibition of TXK.
For test [7], the target named is Ephrin type-A receptor 2 (Homo sapiens, UniProt P29317). The experiment in a line: Inhibition of ECK.
Test [8] has as its target T1, Tyrosine-protein kinase ITK/TSK. The experiment in a line: Inhibition of human ITK in presence of 100 uM ATP.
Test [9] shares this target. The experiment in a line: Inhibition of human ITK in presence of 500 uM ATP.
For test [10] the target is unchanged. The experiment in a line: Inhibition of human ITK in presence of 3 uM ATP.
Test [11] addresses Vascular endothelial growth factor receptor 1 (Homo sapiens, UniProt P17948). The experiment in a line: Inhibition of VEGFR1.
The target of test [12] is Tyrosine-protein kinase JAK3 (Homo sapiens) (UniProt P52333). The experiment in a line: Inhibition of JAK3 at 10 uM.
Tyrosine-protein kinase JAK3 (Homo sapiens), sequence (P52333 whole entry): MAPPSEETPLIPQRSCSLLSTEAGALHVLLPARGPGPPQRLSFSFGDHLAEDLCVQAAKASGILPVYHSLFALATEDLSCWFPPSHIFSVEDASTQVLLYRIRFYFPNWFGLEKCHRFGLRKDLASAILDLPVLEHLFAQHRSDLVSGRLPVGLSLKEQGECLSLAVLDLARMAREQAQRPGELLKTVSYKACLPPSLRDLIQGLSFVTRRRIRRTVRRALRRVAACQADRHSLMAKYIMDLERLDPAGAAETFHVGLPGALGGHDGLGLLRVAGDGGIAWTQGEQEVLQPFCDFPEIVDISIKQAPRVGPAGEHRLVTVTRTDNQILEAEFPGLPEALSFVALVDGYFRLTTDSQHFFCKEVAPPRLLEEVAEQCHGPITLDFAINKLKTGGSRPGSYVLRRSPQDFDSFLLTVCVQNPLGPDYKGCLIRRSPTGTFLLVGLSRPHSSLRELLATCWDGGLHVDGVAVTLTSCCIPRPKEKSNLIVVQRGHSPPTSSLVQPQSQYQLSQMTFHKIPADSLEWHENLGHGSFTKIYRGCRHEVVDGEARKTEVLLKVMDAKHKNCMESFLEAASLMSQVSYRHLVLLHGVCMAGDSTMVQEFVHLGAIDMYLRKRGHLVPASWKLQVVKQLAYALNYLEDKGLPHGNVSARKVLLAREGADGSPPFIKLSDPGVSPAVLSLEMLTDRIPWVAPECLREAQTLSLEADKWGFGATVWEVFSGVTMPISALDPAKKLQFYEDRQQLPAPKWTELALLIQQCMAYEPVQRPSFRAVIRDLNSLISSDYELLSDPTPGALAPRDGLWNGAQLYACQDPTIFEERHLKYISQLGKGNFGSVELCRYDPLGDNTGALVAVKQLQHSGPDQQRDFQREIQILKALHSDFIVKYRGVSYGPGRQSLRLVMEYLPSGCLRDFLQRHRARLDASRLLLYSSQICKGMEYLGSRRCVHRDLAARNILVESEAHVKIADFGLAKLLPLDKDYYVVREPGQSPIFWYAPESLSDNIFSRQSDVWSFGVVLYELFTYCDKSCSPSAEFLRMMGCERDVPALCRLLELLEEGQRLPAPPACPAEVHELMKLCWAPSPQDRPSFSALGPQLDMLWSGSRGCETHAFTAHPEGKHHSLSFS
For test [13], the target named is Protein kinase C beta type (Homo sapiens) (UniProt P05771). The experiment in a line: Inhibition of PKCbeta at 10 uM.
Test [14] addresses Dual specificity mitogen-activated protein kinase kinase 1 (Homo sapiens) (UniProt Q02750). The test is described as follows: Inhibition of MKK1 at 10 uM.
For test [15], the target named is Serine/threonine-protein kinase Chk1 (Homo sapiens) (UniProt O14757). The test is described as follows: Inhibition of CHK1 at 10 uM.
Test [16] has as its target Fibroblast growth factor receptor 3 (Homo sapiens, UniProt P22607). The experiment in a line: Inhibition of FGFR3.
Test [17] concerns the target MAP kinase-activated protein kinase 2 (Homo sapiens) (UniProt P49137). The test is described as follows: Inhibition of MAPKAPK2 at 10 uM.
For test [18], the target named is T1, Tyrosine-protein kinase ITK/TSK. The experiment in a line: Inhibition of human ITK in presence of 20 uM ATP.
For test [19], the target named is Cyclin-dependent kinase 5 (Homo sapiens) (UniProt Q00535). The test is described as follows: Inhibition of CDK5 at 10 uM.
Cyclin-dependent kinase 5 (Homo sapiens), sequence (Q00535 whole entry, looked up): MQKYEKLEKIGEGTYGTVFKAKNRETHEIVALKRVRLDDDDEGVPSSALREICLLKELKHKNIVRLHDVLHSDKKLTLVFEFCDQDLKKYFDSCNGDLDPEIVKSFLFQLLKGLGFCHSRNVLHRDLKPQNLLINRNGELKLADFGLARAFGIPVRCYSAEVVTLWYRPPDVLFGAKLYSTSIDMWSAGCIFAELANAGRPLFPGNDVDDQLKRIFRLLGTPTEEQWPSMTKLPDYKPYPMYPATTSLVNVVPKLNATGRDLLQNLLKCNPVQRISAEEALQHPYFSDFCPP
Test [20] can be described thus: Inhibition of IRK. Also noted: species or system Homo sapiens.
Test [21] addresses Tyrosine-protein kinase Tec (Homo sapiens, UniProt P42680). The experiment in a line: Inhibition of TEC.
In test [22] the target is Tyrosine-protein kinase Lyn (Homo sapiens, UniProt P07948). The test is described as follows: Inhibition of LYN.
Test [23] has as its target Cytoplasmic tyrosine-protein kinase BMX (Homo sapiens, UniProt P51813). The experiment in a line: Inhibition of BMX.
For test [24], the target named is Hepatocyte growth factor receptor (Homo sapiens, UniProt P08581). The test is described as follows: Inhibition of HGFR.
Test [25] deals with Tyrosine-protein kinase BTK (Homo sapiens, UniProt Q06187). The experiment in a line: Inhibition of BTK.
Test [26] concerns the target Tyrosine-protein kinase SYK (Homo sapiens) (UniProt P43405). The test is described as follows: Inhibition of SYK at 10 uM.
Test [27] addresses Cyclin-dependent kinase 2 (Homo sapiens) (UniProt P24941). The experiment in a line: Inhibition of CDK2 at 10 uM.

Tyrosine-protein kinase Tec, sequence (P42680 whole entry): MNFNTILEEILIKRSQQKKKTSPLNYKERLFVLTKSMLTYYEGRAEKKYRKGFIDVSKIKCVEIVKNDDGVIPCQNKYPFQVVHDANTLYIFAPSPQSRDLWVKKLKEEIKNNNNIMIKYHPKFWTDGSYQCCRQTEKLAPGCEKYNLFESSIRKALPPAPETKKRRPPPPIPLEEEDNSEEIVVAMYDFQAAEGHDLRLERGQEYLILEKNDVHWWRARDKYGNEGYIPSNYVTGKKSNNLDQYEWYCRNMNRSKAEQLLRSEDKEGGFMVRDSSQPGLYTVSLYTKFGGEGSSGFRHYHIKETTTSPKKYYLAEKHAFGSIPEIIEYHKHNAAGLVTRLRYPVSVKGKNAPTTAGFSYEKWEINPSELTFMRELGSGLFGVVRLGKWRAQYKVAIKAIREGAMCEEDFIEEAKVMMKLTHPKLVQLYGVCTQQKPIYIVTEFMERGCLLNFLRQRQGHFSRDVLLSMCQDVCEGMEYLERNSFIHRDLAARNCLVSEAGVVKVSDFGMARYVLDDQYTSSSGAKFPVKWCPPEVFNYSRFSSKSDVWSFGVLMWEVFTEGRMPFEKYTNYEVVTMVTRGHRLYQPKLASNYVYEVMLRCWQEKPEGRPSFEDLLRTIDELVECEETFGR
Rho-associated protein kinase 2 (Homo sapiens), sequence (O75116 whole entry, looked up): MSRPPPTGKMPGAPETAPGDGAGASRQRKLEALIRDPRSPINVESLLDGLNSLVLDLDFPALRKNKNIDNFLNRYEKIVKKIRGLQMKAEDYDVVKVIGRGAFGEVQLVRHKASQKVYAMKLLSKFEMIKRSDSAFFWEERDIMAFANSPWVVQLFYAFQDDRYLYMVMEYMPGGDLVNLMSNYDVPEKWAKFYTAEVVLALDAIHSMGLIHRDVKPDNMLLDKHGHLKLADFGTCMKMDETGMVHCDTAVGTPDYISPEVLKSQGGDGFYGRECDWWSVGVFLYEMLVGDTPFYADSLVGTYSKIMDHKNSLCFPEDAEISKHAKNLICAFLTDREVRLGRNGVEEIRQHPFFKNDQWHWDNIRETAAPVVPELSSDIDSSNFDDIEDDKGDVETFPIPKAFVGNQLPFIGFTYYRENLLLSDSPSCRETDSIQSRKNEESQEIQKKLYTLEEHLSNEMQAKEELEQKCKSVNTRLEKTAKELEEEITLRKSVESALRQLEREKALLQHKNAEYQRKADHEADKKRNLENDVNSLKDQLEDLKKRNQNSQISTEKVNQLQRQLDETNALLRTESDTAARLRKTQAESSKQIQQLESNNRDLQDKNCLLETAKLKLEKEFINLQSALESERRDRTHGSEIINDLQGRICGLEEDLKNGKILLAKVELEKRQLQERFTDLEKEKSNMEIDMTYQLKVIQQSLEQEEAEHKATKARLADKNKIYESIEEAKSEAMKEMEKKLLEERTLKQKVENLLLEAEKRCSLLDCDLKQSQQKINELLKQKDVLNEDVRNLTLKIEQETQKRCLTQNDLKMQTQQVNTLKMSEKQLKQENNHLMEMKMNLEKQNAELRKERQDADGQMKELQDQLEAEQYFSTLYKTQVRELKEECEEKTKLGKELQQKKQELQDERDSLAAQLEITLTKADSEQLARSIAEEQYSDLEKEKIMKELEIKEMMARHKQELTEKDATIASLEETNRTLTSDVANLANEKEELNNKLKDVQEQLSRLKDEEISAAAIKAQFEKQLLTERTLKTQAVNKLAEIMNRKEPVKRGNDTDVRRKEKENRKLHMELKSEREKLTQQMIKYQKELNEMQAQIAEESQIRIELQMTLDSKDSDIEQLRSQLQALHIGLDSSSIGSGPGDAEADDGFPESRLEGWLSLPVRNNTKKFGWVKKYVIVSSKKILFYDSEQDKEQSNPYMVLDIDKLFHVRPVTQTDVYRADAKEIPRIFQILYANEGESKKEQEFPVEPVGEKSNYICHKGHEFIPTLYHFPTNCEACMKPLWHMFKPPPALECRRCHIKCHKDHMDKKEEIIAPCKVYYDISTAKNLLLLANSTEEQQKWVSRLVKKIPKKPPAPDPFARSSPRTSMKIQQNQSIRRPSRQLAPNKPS
Dual specificity mitogen-activated protein kinase kinase 1 (Homo sapiens), sequence (Q02750 whole entry): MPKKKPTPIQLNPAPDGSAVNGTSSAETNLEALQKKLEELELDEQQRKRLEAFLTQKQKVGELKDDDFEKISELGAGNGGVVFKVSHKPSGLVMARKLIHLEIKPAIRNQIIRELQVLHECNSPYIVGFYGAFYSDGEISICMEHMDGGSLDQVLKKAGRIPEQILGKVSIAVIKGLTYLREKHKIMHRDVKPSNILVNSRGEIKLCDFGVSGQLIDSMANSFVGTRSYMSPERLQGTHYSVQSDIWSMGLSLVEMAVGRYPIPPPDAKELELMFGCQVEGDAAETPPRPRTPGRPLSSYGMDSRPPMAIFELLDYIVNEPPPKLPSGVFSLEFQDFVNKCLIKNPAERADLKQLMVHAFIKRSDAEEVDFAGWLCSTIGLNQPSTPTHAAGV

Turning to `NCCCn1c(NC(=O)c2cccs2)nc2cc(C(=O)OC3CCCCC3)ccc21`, in test [1], the half-maximal inhibitory concentration (IC50) (in general, the concentration that inhibits the measured activity by half) was > 20000 nM.
The same measure, in the same setting: as for `NC(=O)CCn1c(NC(=O)c2ccsc2)nc2cc(C(=O)NC3CCCCC3)ccc21`, the figure is > 20000 nM.
`CN(C(=O)C1CCCCC1)c1ccc2c(c1)nc(NC(=O)c1cccs1)n2CCCN`: the IC50 was > 6000 nM in test [2]; 2400 nM in [5]; 1400 nM in [6]; > 10000 nM in [7]; 240 nM in [8]; 1100 nM in test [9]. Further, the half-maximal inhibitory concentration (IC50) in [10] is 25 nM; in test [11], > 10000 nM; in test [16], > 6000 nM; in test [18] it was 80 nM; in [20] it was 200 nM; in test [1] it was 25 nM. The IC50 in [21] is 22000 nM; in test [22], > 10000 nM; in test [23], > 22000 nM; in [24], > 10000 nM; in test [25] it was > 22000 nM. Besides, the inhibition (in general, the drop in the measured response relative to a control, in per cent) in test [3] is 10%; in test [4], -1%; in test [12], -7%; in [13], 21%; in test [14], -2%; in test [15] it was 8%. For the same compound, the inhibition in test [17] was 1%; in test [19], -4%; in [26], 6%; in test [27], 7%.
As for `NC(=O)CCn1c(NC(=O)c2ccccc2)nc2cc(C(=O)NC3CCCCC3)ccc21`, the IC50 in test [1] is > 20000 nM.
Consider `NC(=O)CCn1c(NC(=O)c2ccccc2)nc2cc(C(=O)N(C3CCCCC3)C3CCCCC3)ccc21`, for which the half-maximal inhibitory concentration (IC50) in test [1] was > 20000 nM.
